Source: patent US12077503B2, “Substituted cyclic amides and their use as herbicides” (FMC CORPORATION, priority 2015, dated 2024)

Legend:
Assay type in all cases: in vivo
[1] = test system: barnyardgrass (Echinochloa crus-galli); experiment: Test G Pre-Emergence Protocol; details: Echinochloa crus-galli, pre-emergence, 312 h, evaluated after 13 days; for pest or weed control at 15.625 g/ha: 15.625 g ai/ha, read-out: Barnyard grass damage rating (100=total damage to plant; 0=no damage to plant); for pest or weed control at 62.5 g/ha: 62.5 g ai/ha, 100=total damage to plant, 0=no damage to plant, read-out: plant damage rating, Barnyardgrass; for pest or weed control at 250 g/ha: 250 g ai/ha, read-out: Barnyardgrass damage rating (100=total damage to plant; 0=no damage to plant)
Method in brief: (§1)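 Pots of seeds in standard soil were grown for one day in a glasshouse (24/16 °C day/night, 14 h light, 65% humidity), then sprayed with compound in acetone/water 50:50 with 0.5% Tween 20 at 15.625, 62.5 or 250 g/ha. Damage was scored after 13 days on a 0 (none) to 100 (total) scale.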

corn (Zea mays) [2] = experiment: Test G Pre-Emergence Protocol; details: Zea mays, pre-emergence, 312 h, evaluated after 13 days; for plant injury at 15.625 g/ha: 15.625 g ai/ha; for plant injury at 15.625 g/ha / plant injury at 250 g/ha: read-out: Corn damage rating (100=total damage to plant; 0=no damage to plant); for plant injury at 62.5 g/ha: 62.5 g ai/ha, 100=total damage to plant, 0=no damage to plant, read-out: plant damage rating, Corn; for plant injury at 250 g/ha: 250 g ai/ha
Method in brief: as §1

[3] = test system: giant foxtail (Setaria faberi); experiment: Test G Pre-Emergence Protocol; details: Setaria faberi, pre-emergence, 312 h, evaluated after 13 days; for pest or weed control at 15.625 g/ha: 15.625 g ai/ha; for pest or weed control at 15.625 g/ha / pest or weed control at 250 g/ha: read-out: Foxtail, Giant damage rating (100=total damage to plant; 0=no damage to plant); for pest or weed control at 62.5 g/ha: 62.5 g ai/ha, 100=total damage to plant, 0=no damage to plant, read-out: plant damage rating, Foxtail, Giant; for pest or weed control at 250 g/ha: 250 g ai/ha
Method in brief: as §1

[4] = test system: ivy-leaved morning glory (Ipomoea hederacea); experiment: Test G Pre-Emergence Protocol; details: Ipomoea, pre-emergence, 312 h, evaluated after 13 days; for pest or weed control at 15.625 g/ha: 15.625 g ai/ha, read-out: Morning-glory, Ivy-leaved damage rating (100=total damage to plant; 0=no damage to plant); for pest or weed control at 62.5 g/ha: 62.5 g ai/ha, 100=total damage to plant, 0=no damage to plant, read-out: plant damage rating, Morningglory, Ivy-leaved; for pest or weed control at 250 g/ha: 250 g ai/ha, read-out: Morningglory, Ivy-leaved damage rating (100=total damage to plant; 0=no damage to plant)
Method in brief: as §1

[5] = test system: redroot pigweed (Amaranthus retroflexus); experiment: Test G Pre-Emergence Protocol; details: Amaranthus retroflexus, pre-emergence, 312 h, evaluated after 13 days; for pest or weed control at 15.625 g/ha: 15.625 g ai/ha; for pest or weed control at 15.625 g/ha / pest or weed control at 250 g/ha: read-out: Pigweed, Redroot damage rating (100=total damage to plant; 0=no damage to plant); for pest or weed control at 62.5 g/ha: 62.5 g ai/ha, 100=total damage to plant, 0=no damage to plant, read-out: plant damage rating, Pigweed, Redroot; for pest or weed control at 250 g/ha: 250 g ai/ha
Method in brief: as §1

[6] = test system: velvetleaf (Abutilon theophrasti); experiment: Test G Pre-Emergence Protocol; details: Abutilon theophrasti, pre-emergence, 312 h, evaluated after 13 days; for pest or weed control at 15.625 g/ha: 15.625 g ai/ha; for pest or weed control at 15.625 g/ha / pest or weed control at 250 g/ha: read-out: Velvetleaf damage rating (100=total damage to plant; 0=no damage to plant); for pest or weed control at 62.5 g/ha: 62.5 g ai/ha, 100=total damage to plant, 0=no damage to plant, read-out: plant damage rating, Velvetleaf; for pest or weed control at 250 g/ha: 250 g ai/ha
Method in brief: as §1

[7] = test system: barnyardgrass (Echinochloa crus-galli); experiment: Test G Post-Emergence Protocol; details: Echinochloa crus-galli, post-emergence, 312 h; for pest or weed control at 15.625 g/ha: 15.625 g ai/ha, evaluated after 13 days (100=total damage to plant; 0=no damage to plant), read-out: Barnyardgrass damage rating; for pest or weed control at 62.5 g/ha: 62.5 g ai/ha, read-out: Barnyardgrass damage rating (100=total damage to plant; 0=no damage to plant); for pest or weed control at 62.5 g/ha / pest or weed control at 250 g/ha: evaluated after 13 days; for pest or weed control at 250 g/ha: 250 g ai/ha, read-out: damage to plant, Barnyardgrass (100=total damage to plant; 0=no damage to plant)
Method in brief: (§2)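 Post-emergence herbicidal damage, scored visually 0–100 at 13 days. Application at 15.625, 62.5 or 250 g/ha onto 8-day-old plants grown under glasshouse control.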

corn (Zea mays) [8] = experiment: Test G Post-Emergence Protocol; details: Zea mays, post-emergence, 312 h; for plant injury at 15.625 g/ha: 15.625 g ai/ha, evaluated after 13 days (100=total damage to plant; 0=no damage to plant), read-out: Corn damage rating; for plant injury at 62.5 g/ha: 62.5 g ai/ha, read-out: Corn damage rating (100=total damage to plant; 0=no damage to plant); for plant injury at 62.5 g/ha / plant injury at 250 g/ha: evaluated after 13 days; for plant injury at 250 g/ha: 250 g ai/ha, read-out: damage to plant, Corn (100=total damage to plant; 0=no damage to plant)
Method in brief: as §2

[9] = test system: giant foxtail (Setaria faberi); experiment: Test G Post-Emergence Protocol; details: Setaria faberi, post-emergence, 312 h; for pest or weed control at 15.625 g/ha: 15.625 g ai/ha, evaluated after 13 days (100=total damage to plant; 0=no damage to plant), read-out: Foxtail, Giant damage rating; for pest or weed control at 62.5 g/ha: 62.5 g ai/ha, read-out: Foxtail, Giant damage rating (100=total damage to plant; 0=no damage to plant); for pest or weed control at 62.5 g/ha / pest or weed control at 250 g/ha: evaluated after 13 days; for pest or weed control at 250 g/ha: 250 g ai/ha, read-out: damage to plant, Foxtail, Giant (100=total damage to plant; 0=no damage to plant)
Method in brief: as §2

[10] = test system: ivy-leaved morning glory (Ipomoea hederacea); experiment: Test G Post-Emergence Protocol; details: Ipomoea, post-emergence, 312 h; for pest or weed control at 15.625 g/ha: 15.625 g ai/ha, evaluated after 13 days (100=total damage to plant; 0=no damage to plant), read-out: Morningglory, Ivy-leaved damage rating; for pest or weed control at 62.5 g/ha: 62.5 g ai/ha, read-out: Morningglory, Ivy-leaved damage rating (100=total damage to plant; 0=no damage to plant); for pest or weed control at 62.5 g/ha / pest or weed control at 250 g/ha: evaluated after 13 days; for pest or weed control at 250 g/ha: 250 g ai/ha, read-out: damage to plant, Morningglory, Ivy-leaved (100=total damage to plant; 0=no damage to plant)
Method in brief: as §2

[11] = test system: redroot pigweed (Amaranthus retroflexus); experiment: Test G Post-Emergence Protocol; details: Amaranthus retroflexus, post-emergence, 312 h; for pest or weed control at 15.625 g/ha: 15.625 g ai/ha, evaluated after 13 days (100=total damage to plant; 0=no damage to plant), read-out: Pigweed, Redroot damage rating; for pest or weed control at 62.5 g/ha: 62.5 g ai/ha, read-out: Pigweed, Redroot damage rating (100=total damage to plant; 0=no damage to plant); for pest or weed control at 62.5 g/ha / pest or weed control at 250 g/ha: evaluated after 13 days; for pest or weed control at 250 g/ha: 250 g ai/ha, read-out: damage to plant, Pigweed, Redroot (100=total damage to plant; 0=no damage to plant)
Method in brief: as §2

[12] = test system: velvetleaf (Abutilon theophrasti); experiment: Test G Post-Emergence Protocol; details: Abutilon theophrasti, post-emergence, 312 h; for pest or weed control at 15.625 g/ha: 15.625 g ai/ha, evaluated after 13 days (100=total damage to plant; 0=no damage to plant), read-out: Velvetleaf damage rating; for pest or weed control at 62.5 g/ha: 62.5 g ai/ha, read-out: Velvetleaf damage rating (100=total damage to plant; 0=no damage to plant); for pest or weed control at 62.5 g/ha / pest or weed control at 250 g/ha: evaluated after 13 days; for pest or weed control at 250 g/ha: 250 g ai/ha, read-out: damage to plant, Velvetleaf (100=total damage to plant; 0=no damage to plant)
Method in brief: as §2

COC(=O)c1sccc1NC(=O)[C@@H]1C(=O)N(C)C[C@H]1c1ccc(C(F)(F)F)cc1 (racemic) [Compound 1621]
40%: pest or weed control at 62.5 g/ha [9] | pest or weed control at 250 g/ha [9]
30%: pest or weed control at 62.5 g/ha [7] | pest or weed control at 250 g/ha [7]
20%: pest or weed control at 62.5 g/ha [11]
10%: pest or weed control at 15.625 g/ha [7] | pest or weed control at 15.625 g/ha [9] | pest or weed control at 250 g/ha [11]
0%: pest or weed control at 15.625 g/ha [1] | pest or weed control at 62.5 g/ha [1] | pest or weed control at 250 g/ha [1] | plant injury at 15.625 g/ha (corn (Zea mays) [2]) | plant injury at 62.5 g/ha (corn (Zea mays) [2]) | plant injury at 250 g/ha (corn (Zea mays) [2]) | pest or weed control at 15.625 g/ha [3] | pest or weed control at 62.5 g/ha [3] | pest or weed control at 250 g/ha [3] | pest or weed control at 15.625 g/ha [4] | pest or weed control at 62.5 g/ha [4] | pest or weed control at 250 g/ha [4] | pest or weed control at 15.625 g/ha [5] | pest or weed control at 62.5 g/ha [5] | pest or weed control at 250 g/ha [5] | pest or weed control at 15.625 g/ha [6] | pest or weed control at 62.5 g/ha [6] | pest or weed control at 250 g/ha [6] | plant injury at 15.625 g/ha (corn (Zea mays) [8]) | plant injury at 62.5 g/ha (corn (Zea mays) [8]) | plant injury at 250 g/ha (corn (Zea mays) [8]) | pest or weed control at 15.625 g/ha [10] | pest or weed control at 62.5 g/ha [10] | pest or weed control at 250 g/ha [10] | pest or weed control at 15.625 g/ha [11] | pest or weed control at 15.625 g/ha [12] | pest or weed control at 62.5 g/ha [12] | pest or weed control at 250 g/ha [12]

CN1C[C@@H](c2ccc(C(F)(F)F)cc2)[C@H](C(=O)Nc2ccc(F)c(Cl)c2F)C1=O (racemic) [Compound 1628]
10%: pest or weed control at 15.625 g/ha [1] | pest or weed control at 15.625 g/ha [11]
30%: pest or weed control at 62.5 g/ha [5] | pest or weed control at 15.625 g/ha [7] | pest or weed control at 15.625 g/ha [12]
0%: pest or weed control at 62.5 g/ha [1] | plant injury at 15.625 g/ha (corn (Zea mays) [2]) | plant injury at 62.5 g/ha (corn (Zea mays) [2]) | plant injury at 250 g/ha (corn (Zea mays) [2]) | pest or weed control at 62.5 g/ha [4] | pest or weed control at 15.625 g/ha [5] | pest or weed control at 15.625 g/ha [6] | pest or weed control at 62.5 g/ha [6] | pest or weed control at 250 g/ha [6] | plant injury at 15.625 g/ha (corn (Zea mays) [8]) | plant injury at 62.5 g/ha (corn (Zea mays) [8])
70%: pest or weed control at 250 g/ha [1] | pest or weed control at 62.5 g/ha [7] | pest or weed control at 250 g/ha [7] | pest or weed control at 15.625 g/ha [9]
50%: pest or weed control at 15.625 g/ha [3] | pest or weed control at 62.5 g/ha [3] | pest or weed control at 250 g/ha [5] | plant injury at 250 g/ha (corn (Zea mays) [8]) | pest or weed control at 250 g/ha [10] | pest or weed control at 62.5 g/ha [11]
80%: pest or weed control at 250 g/ha [3] | pest or weed control at 62.5 g/ha [9] | pest or weed control at 250 g/ha [9]
20%: pest or weed control at 15.625 g/ha [4] | pest or weed control at 250 g/ha [4] | pest or weed control at 15.625 g/ha [10] | pest or weed control at 62.5 g/ha [10] | pest or weed control at 62.5 g/ha [12] | pest or weed control at 250 g/ha [12]
60%: pest or weed control at 250 g/ha [11]
